Assay in all cases: NCI tumour cell line growth inhibition, 48 h
The subject of assay [1] is RXF 393.
The test system of assay [2] is NCI-H522.
Assay [3] relates to HOP-62.
The test system of assay [4] is CAKI-1.
In assay [5] the test system is TK-10.
For assay [6], the system named is HOP-92.
Assay [7] concerns UO-31.
For assay [8], the system named is OVCAR-3.
The test system of assay [9] is UACC-62.
The test system of assay [10] is OVCAR-8.
In assay [11] the test system is LOX IMVI.
The subject of assay [12] is SK-MEL-2.
Assay [13] deals with SR.
Assay [14] has as its system OVCAR-4.

Molecules are shown by their SMILES.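 A five-concentration, 48-hour dose response in 96-well plates underlies each endpoint, interpolated linearly between surrounding concentrations. Here, GI50 denotes the concentration required for 50% inhibition of growth.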 Active and inactive are the calls of the source. No stated cut-off is given here; in the data, active = GI50 up to about 1.1 µM and inactive = higher. Some results are limits rather than exact numbers.

On to `C/C(=N\NC(N)=S)c1ccc2c(c1)OCO2`, for which the GI50 in assay [1] is > 100 µM (inactive); in assay [2], 32.4 µM (inactive); in assay [3] it was > 100 µM (inactive); in assay [4], > 100 µM (inactive); in assay [5], > 100 µM (inactive); in assay [6], > 100 µM (inactive). In addition, the GI50 in assay [7] is 76.2 µM (inactive); in assay [8] it was > 100 µM (inactive); in assay [9], > 100 µM (inactive); in assay [10], > 100 µM (inactive); in [11] it was > 100 µM (inactive); in assay [12] it was > 100 µM (inactive). For the same compound, in assay [13], the GI50 is > 100 µM (inactive).

Regarding `CC1=CC=NN2C(=O)[C@H](C)C2C1` (stereo partly specified), the GI50 in assay [1], in assay [2], in assay [3], in [14], in assay [5] and in assay [6] was > 100 µM (inactive) in each case. For the same compound, the GI50 in assay [7], in [8], in [9], in assay [10], in [11] and in assay [12] was > 100 µM (inactive) throughout. Further, the GI50 in assay [13] was > 100 µM (inactive).

`Fc1ccccc1C1SCc2nc3ccccc3n21` (stereo unspecified): the GI50 is 92 µM (inactive) in [1]; 28 µM (inactive) in assay [2]; 44.8 µM (inactive) in assay [4]; > 100 µM (inactive) in [5]; 19.7 µM (inactive) in assay [6]; 24.8 µM (inactive) in assay [7]. Further, the GI50 in assay [8] is 38.4 µM (inactive); in assay [9], 35 µM (inactive); in assay [10], 49.4 µM (inactive); in [12], 76.4 µM (inactive); in [13], 38.1 µM (inactive).

With `C[N+]1(C)CCCC1C(=O)[O-]` (stereo unspecified), the GI50 in assay [1], in assay [2], in assay [3], in assay [14], in assay [5] and in assay [6] was > 100 µM (inactive) each time. In addition, the GI50 in assay [7], in assay [8], in assay [9], in assay [10], in [11] and in assay [12] was > 100 µM (inactive) in each case. Moreover, the GI50 in assay [13] was > 100 µM (inactive).

With `Cc1ccc(S(=O)(=O)C(CC(=O)N2CCCC2)C(=O)c2ccccc2)cc1` (stereo unspecified), the GI50 in assay [1] was > 100 µM (inactive); in assay [2], 89.3 µM (inactive); in assay [3], > 100 µM (inactive); in assay [14] it was > 100 µM (inactive); in assay [4], 46.9 µM (inactive); in assay [5] it was > 100 µM (inactive). Also, the GI50 in assay [6] is > 100 µM (inactive); in [7], > 100 µM (inactive); in [8], > 100 µM (inactive); in [9], > 100 µM (inactive); in assay [10], > 100 µM (inactive); in [11], 44.5 µM (inactive). Besides, the GI50 in assay [13] was 25.5 µM (inactive).

Regarding `N#CC1CC2(CCN1C(=O)c1ccccc1)OCCO2` (stereo unspecified), the GI50 is > 100 µM (inactive) in assay [1]; 0.308 µM (active) in [2]; > 100 µM (inactive) in assay [3]; > 100 µM (inactive) in [14]; > 100 µM (inactive) in assay [4]; > 100 µM (inactive) in [5]. The GI50 in [6], in [7], in assay [8], in assay [9], in assay [10] and in [12] was > 100 µM (inactive) each time. For the same compound, in assay [13], the GI50 is > 100 µM (inactive).

For the origin of these results see ChEMBL document CHEMBL1201862, “PubChem BioAssay data set” (2004).
